{"source": "patent US20010029636A1", "about": "“Hair bleaching and colouring compositions” (priority 1999, published 2001)", "experiment": "Cuticle abrasion method after bleaching of hair switches", "conditions": "solution 2 versus solution 1", "method": "The bleaching solutions 1 and 2 were each divided into three parts A, B and C. A was adjusted to pH 9.7, B to pH 10.1 and C to pH 10.5. Each solution was adjusted to the required pH with ammonium hydroxide (ex sigma, 28.1% active). The six solutions were each dosed (1.6 ml/g hair) onto a separate Spanish hair switch (8 g, 8″, ex Hugo Royer Hair Suppliers) in a disposable petri dish using an automatic pipette. Each switch was then agitated for 90 sec using a spoon ended plastic spatula. […] Each switch was then rinsed and left to dry naturally. Step 3: Cuticle Abrasion Method This method provides a measure of the extent of hair damage following the bleaching step. […] Rinse and repeat. The base wash used is 12% SLES, 2% CAPB in water. Dry them overnight. […] Record the initial weight of the hair. Add 200 ml of distilled water to the blender, making sure that the hair is covered with water. […] Transfer the liquid to a fresh tube. Wash the blender and add this, to the tube, as well. Pour the supernatant in 4×50 ml centrifuge tubes and centrifuge at 4300 rpm for 10 mins, 22° C. Pour the pellet on the filters, wash the tube and add this as well. Transfer the supernatant to centrifuge tubes and centrifuge at 4300 rpm for 10 min. Transfer the pellet to a beaker, wash the tube 2-3 times and top with water until 50 ml. Freeze them until solid. Freeze dry them for 24 hours in Modulyo freeze drier. Once dry, weigh amount of cuticle recovered. Final measure is calculated as follows: […] This measure provides the % weight of cuticle abraded from the hair fibres which reflects the state of damage of the hair tested. Thus the greater amount of cuticle recovered the more damaged the tested hair."}
{"smiles": "CC(C)CCC[C@@H](C)[C@H]1CC[C@H]2[C@@H]3CC=C4C[C@@H](O)CC[C@]4(C)[C@H]3CC[C@]12C", "note": "[cholesterol]", "values": [{"measurement": "% reduction in damage of hair when cholesterol present", "setting": "pH 9.7", "value": 3.95, "unit": "%"}, {"measurement": "% reduction in damage of hair when cholesterol present", "setting": "pH 10.1", "value": 12.211, "unit": "%"}, {"measurement": "% reduction in damage of hair when cholesterol present", "setting": "pH 10.5", "value": 30.902, "unit": "%"}]}
